Source: US20200376068A1, “PROTECTION OF NORMAL TISSUE IN CANCER TREATMENT” (THOMAS JEFFERSON UNIVERSITY, priority 2017, published 2020)
Bridge positions count the residues as written; N and C are the ends. Ends that are not written are not given here. Peptide text beside a SMILES is read from it.

Experiments:
intestinal crypts = assay: Ex vivo enteroid formation from crypts; type: cell-based, mouse; details: crypts of Gucy2c+/+ mice, oral linaclotide
Method: Crypt isolation for subsequent analyses (enteroid assay, florescence-activated cell sorting (FACS), immunoblot) was performed using a variation of the chelation dissociation method. Briefly, intestines were harvested, villi were gently scraped off for the small intestine, and tissues were minced and incubated in a 10 mM EDTA/Ca-free, Mg-free Hank's Balanced Salt Solution (HBSS) on ice for a total of 40 min, Throughout this time, solutions were intermittently shaken by hand at the speed of two shakes/second, supernatant was disposed a total of six times, and fresh EDTA/HBSS was added after each disposal. Tissue was incubated undisturbed for 30 min on ice followed by vigorous pipetting with a 10 mL pipet to dissociate the remaining crypts. Crypts were filtered through a […] strainer and pelleted. For enteroid culture, the same number of crypts for each genotype (ranging from 300-1500 crypts/well) were resuspended in a matrigel droplet (BD, 354230), pipetted briefly with a 1000 μL micropipette, plated in 30 μL, and overlaid with 350 μL of intesticult media (Stem Cell Technologies, Vancouver. Canada: 06005). For FACS, crypts were incubated in 0.25% trypsin (Thermo Scientific, Philadelphia, Pa.; 15050065) at 37° C. until a single cell suspension was obtained (not more than 10 min). Cells were then filtered a second time using a 40 μM strainer and kept in EDTA solution for sorting.

[1] = test system: patients with irritable bowel syndrome; details: oral; cited from earlier work
[2] = cited from earlier work
[3] = test system: intestinal stem cells (ISCs); assay: Quantification of crypt Lgr5+GFP+ and Bmi1+ stem cells in Gucy2c−/− mice; type: in vivo, mouse
Method: (§1) Gucyc^−/− (Glucy2^ctm1Gar[63]), Lgr5-EGFP-CreERT2 (B6.129P2-Lgr5^tm1(cre/ERT2)Cle/J; Jax, Bar Harbor, Me., #008875) and Rosa-STOP^fl-LacZ (B6.129S4-Gt(ROSA)26Sor^tm1Sor/J; Jax #003474) transgenic mouse lines were interbred to generate offspring with the desired alleles. All mice were co-housed and Gucy2c^+/+ (wild type) littermates with the appropriate alleles were used as controls. Tissues were harvested from adult mice (12-16 wk of age). Cre was induced with a single 200 μL dose of tamoxifen (Sigma; Billerica, Mass.; T5648) in sunflower oil at 10 mg/ml. Tauroursodeoxycholic Acid (TUDCA, Millipore 580549) treatments were administered daily for 3 d at 100 mg/kg/day intraperitoneally. Mice were exposed to a single 10 Gy dose of whole-body γ-irradiation with a PanTak, 310 kVe x-ray machine and tissues were harvested at noted time points after irradiation. In some experiments, mice were gavaged daily for 7 d with 100 μL of 20 mM 8-cpt-cGMP. Each point in a graph (n) represents one mouse unless otherwise noted. All animal protocols were approved by the Thomas Jefferson University Institutional
Intestines were harvested from mice, fixed in formalin, and embedded in paraffin as previously described. Sections (4 μM) were cut then rehydrated in a sequential ethanol-to-water bath and stained with hematoxylin and eosin or antigen-specific primary and secondary antibodies. Primary antibodies for immunofluorescence included: anti-GFP, anti-Bmi1, and anti-GRP78 (Abcam; Cambridge, M A); anti-phospho VASP Ser239 (Sigma; Billerica, Mass.); and anti-GUCY2C (prepared and validated in-house). Secondary antibodies were from Life Technologies (Waltham, Mass.) and specific to the primary hosts. Tyramide signal amplification was used to detect GUCY2C; secondary antibodies conjugated to horseradish peroxidase were from Jackson immunoresearch Laboratories (cat #115-035-206 and #111-036-046, 1:1000 dilution), and fluorescein-conjugated tyramine was prepared from tyramine HCl (cat #T2879, Sigma) and NHS-fluorescein (cat #46410, Thermo Scientific) as described. For visualization of Rosa-LacZ lineage tracing, tamoxifen-induced recombinant Cre intestines were prepared as described previously. At least 4 intestinal circumference sections were evaluated per mouse.

HCT116 p53-null cells [4] = assay: Colony formation assay after irradiation; type: cell-based, human; details: 0-4 Gy, 500 μM, vs PBS
Method: (§2) HCT116 and HCT116 p53-null cells were plated in 6-well dishes at 1×10^4 cells/well followed by treatment for 7 d with vehicle or cell permeable cGMP (8-Br-cGMP, 500 μM). Media containing different treatments were changed every other day. After exposure to radiation (0-4 Gy) cells were trypsinized and plated in 6-well dishes at different densities depending on the potency of the treatments (10^4 cells/well for HCT116 exposed at 0, 1 and 2 Gy; 4×10^4 cells/well for HCT116 p53-null exposed at 0, 1 and 2 Gy; 50×10^4 cells/well for HCT116 exposed at 3 and 4 Gy; 200×10^4 cells/well for HCT116 p53-null exposed at 3 and 4 Gy). […] The number of colonies, defined as >50 cells/colony were counted, and the surviving fraction was calculated as the ratio of the number of colonies in the treated sample to the number of colonies produced by cells that were not irradiated. […]
(§3) Statistical significance was determined by unpaired two-tailed Student's t test unless otherwise indicated. […] Survival and disease-free survival were analyzed by Kaplan-Meier analysis. Body weight was analyzed using a frailty model combining a segmented linear longitudinal model of body weight, a log-normal model for survival time, and a log-normal model for random break point for body weight (inflection point). […] Colony formation was analyzed by a pairwise comparison in four treatments with isotherm slopes by linear regression.

HCT116 cells (parental) = assay: Colony formation assay after irradiation; type: cell-based, human; details: parental HCT116, 0-4 Gy, 500 μM for 7 d before and after irradiation, vs PBS
Method: as §2, §3

Grp78 (BiP) = assay: Crypt ER stress, Grp78 (BiP) expression; type: in vivo, mouse; details: Gucy2c−/− mice
Method: as §1
Intestines were harvested from mice, fixed in formalin, and embedded in paraffin as previously described. […] At least 4 intestinal circumference sections were evaluated per mouse.

[5] = test system: HCT116 human colon carcinoma cells (parental); assay: Anaphase bridge index and aneuploidy after 5 Gy; type: cell-based; details: pretreatment 500 μM
Method: (§4) Cells preconditioned with 8-Br-cGMP, or control cells, were irradiated (5 Gy), then seeded on coverslips in 24-well plates (5×10^4 cells per well). ABI and aneuploidy were quantified 2 d after irradiation.
(§5) ABI: Cells were fixed in 4% PFA and stained with DAPI. Anaphase cells were analyzed and abnormal anaphase cells were calculated under a fluorescence microscope. More than 200 anaphase cells were analyzed in each treatment group in each independent experiment. Any abnormal anaphase cells with anaphase bridges or anaphase lag showing extended chromosome bridging between two spindle poles were enumerated and the ABI was calculated as percentage of abnormal anaphase cells over total anaphase cells.
(§6) Aneuploidy: Cells were fixed in 4% PFA and stained with DAPI, and immunofluorescence stains were performed using α/β-tubulin-specific antibodies and […] γ-tubulin antibodies, detected with Alexa Fluor® 555 or Alexa Fluor® 488 labeled secondary antibodies from Invitrogen. […] Abnormal anaphase chromatids were counted if cells contained more than two centrosomes or two centrosomes located in the same direction to the spindle midzone separated from kinetochores at the poles.

HCT116 p53-null cells [6] = assay: Anaphase bridge index and aneuploidy after 5 Gy; type: cell-based, human; details: pretreatment 500 μM
Method: as §4, §5, §6

p53 = assay: Immunoblot of total and phosphorylated p53 in irradiated HCT116 cells; type: cell-based, human; details: 5 Gy radiation, 500 μM
p53-Mdm2 interaction = assay: Immunoprecipitation of p53-Mdm2 in irradiated HCT116 cells; type: cell-based, human; details: 5 Gy radiation, IP and Western Blot
Method: McCoy's 5A and Dulbecco's Modified Eagle Medium (DMEM) containing 10% fetal bovine serum and other reagents for cell culture were obtained from Life Technologies (Rockville, Md.). 8-Bromoguanosine 3′, 5′-cyclic monophosphate (8-Br-cGMP), a cell-permeant analog of cGMP, was obtained from Sigma (St. Louis, Mo.) and 500 μM was used in all experiments (18,20,25,26,34).
Mouse IgG (5 μg, cat. #10400C, Invitrogen) and rabbit IgG (5 μg, cat. #10400C, Invitrogen) were isotype controls for immunoprecipitation.

[7] = target: guanylate cyclase (ST receptors) (Homo sapiens, UniProt P25092); details: relative to native ST; cited from earlier work
guanylate cyclase (ST receptors), sequence (P25092 24-1073): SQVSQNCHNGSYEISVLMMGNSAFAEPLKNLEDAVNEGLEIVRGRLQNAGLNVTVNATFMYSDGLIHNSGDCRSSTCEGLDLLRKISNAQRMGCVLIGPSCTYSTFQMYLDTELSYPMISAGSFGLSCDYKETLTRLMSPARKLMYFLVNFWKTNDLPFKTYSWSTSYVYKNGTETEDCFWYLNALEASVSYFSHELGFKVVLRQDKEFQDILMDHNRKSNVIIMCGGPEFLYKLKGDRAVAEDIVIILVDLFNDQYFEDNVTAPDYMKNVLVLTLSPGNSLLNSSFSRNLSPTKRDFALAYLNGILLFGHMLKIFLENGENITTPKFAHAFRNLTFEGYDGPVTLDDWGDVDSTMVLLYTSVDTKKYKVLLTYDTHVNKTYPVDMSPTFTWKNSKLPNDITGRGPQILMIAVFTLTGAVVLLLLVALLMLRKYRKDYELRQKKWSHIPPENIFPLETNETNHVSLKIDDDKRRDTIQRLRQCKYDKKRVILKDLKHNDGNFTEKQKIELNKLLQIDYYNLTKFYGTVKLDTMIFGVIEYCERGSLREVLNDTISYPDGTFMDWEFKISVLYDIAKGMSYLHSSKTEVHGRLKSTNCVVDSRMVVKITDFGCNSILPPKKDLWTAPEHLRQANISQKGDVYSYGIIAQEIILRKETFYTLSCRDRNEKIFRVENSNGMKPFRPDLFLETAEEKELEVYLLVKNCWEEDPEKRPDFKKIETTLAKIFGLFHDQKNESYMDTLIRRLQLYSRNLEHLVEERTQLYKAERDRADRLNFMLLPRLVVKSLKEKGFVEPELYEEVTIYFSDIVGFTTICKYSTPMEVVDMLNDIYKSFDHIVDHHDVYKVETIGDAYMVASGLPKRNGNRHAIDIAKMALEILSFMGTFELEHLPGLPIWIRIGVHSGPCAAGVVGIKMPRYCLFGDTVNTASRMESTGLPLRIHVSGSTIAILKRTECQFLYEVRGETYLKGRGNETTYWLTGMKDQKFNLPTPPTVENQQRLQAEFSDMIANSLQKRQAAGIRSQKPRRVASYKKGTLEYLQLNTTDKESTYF

[8] = test system: irradiated intestinal tissue; details: mice lacking genes encoding GCC or uroguanylin; cited from earlier work

For C[C@@H]1NC(=O)[C@@H]2CCCN2C(=O)[C@H](CC(N)=O)NC(=O)[C@@H]2CSSC[C@H](N)C(=O)N[C@H]3CSSC[C@H](NC1=O)C(=O)N[C@@H]([C@@H](C)O)C(=O)NCC(=O)N[C@H](C(=O)N[C@@H](Cc1ccc(O)cc1)C(=O)O)CSSC[C@H](NC(=O)[C@H](Cc1ccc(O)cc1)NC(=O)[C@H](CCC(=O)O)NC3=O)C(=O)N2 [linaclotide] (H-CCEYCCNPACTGCY-OH; disulfide 1-6, 2-10, 5-13), the “efficiency of enteroid formation” value (intestinal crypts) is given as “amplified”, the abdominal pain [1] is given as “relieve” and the constipation [1] is given as “improve”. For the same compound, the “oral bioavailability or bioactivity outside the GI tract” value [2] was “negligible”.
In the case of Nc1nc2c(nc(Br)n2[C@@H]2O[C@@H]3COP(=O)(O)O[C@H]3[C@H]2O)c(=O)[nH]1 [8-Br-cGMP, 8-Bromoguanosine 3′, 5′-cyclic monophosphate], the “Bmi1+ cells in crypts” value [3] is reported as “comparable to those in Gucy2c^+/+ mice”, the “Lgr5+GFP+ cells in crypts” value [3] is reported as “comparable to those in Gucy2c^+/+ mice” and the “cytogenetic toxicity induced by increasing doses of radiation, quantified by colony formation” value (HCT116 p53-null cells [4]) is reported as “not significant”. For the same compound, the “cytogenetic toxicity induced by increasing doses of radiation, quantified by colony formation” value (HCT116 cells (parental)) was “reduced”, the “BiP (Grp78) expression in crypts” value (Grp78 (BiP)) was “mimicked” and the “chromosomal instability quantified by anaphase bridge index” value [5] was “reduced”. The “chromosomal instability quantified by centrosome counts (aneuploidy)” value [5] was “reduced”, the “chromosomal instability quantified by anaphase bridge index” value (HCT116 p53-null cells [6]) was “insensitive” and the “chromosomal instability quantified by centrosome counts (aneuploidy)” value (HCT116 p53-null cells [6]) was “insensitive”. The “phosphorylated p53” value (p53) was “increased”, the “total p53” value (p53) was “increased” and the p53-Mdm2 interaction (p53-Mdm2 interaction) was “disrupting”. For the same compound, the p53 activation (p53-Mdm2 interaction) was “increased”.
For CC(C)C[C@H](NC(=O)[C@@H]1CSSC[C@@H]2NC(=O)[C@H](CC(C)C)NC(=O)[C@H](CCC(=O)O)NC(=O)[C@@H](NC(=O)[C@H](CCC(=O)O)NC(=O)[C@H](CC(=O)O)NC(=O)[C@@H](N)CC(N)=O)CSSC[C@H](NC(=O)[C@H](C)NC(=O)[C@H](C(C)C)NC(=O)[C@H](CC(N)=O)NC(=O)[C@H](C(C)C)NC2=O)C(=O)N[C@@H]([C@@H](C)O)C(=O)NCC(=O)N1)C(=O)O [plecanatide] (H-NDECELCVNVACTGCL-OH; disulfide 4-12, 7-15), the abdominal pain [1] is listed as “relieve”, the constipation [1] is listed as “improve” and the “oral bioavailability or bioactivity outside the GI tract” value [2] is listed as “negligible”.
For C[C@H](CCC(=O)NCCS(=O)(=O)O)[C@H]1CC[C@H]2[C@@H]3[C@@H](O)C[C@@H]4C[C@H](O)CC[C@]4(C)[C@H]3CC[C@]12C [TUDCA, tauroursodeoxycholic acid], the “Bmi1+ cells in crypts” value [3] was “restored”, the “Lgr5+GFP+ cells in crypts” value [3] was “restored” and the “BiP (Grp78) expression in crypts” value (Grp78 (BiP)) was “restored normal BiP expression”.
In the case of “Guanylin: 15 amino acid peptide from mammalian intestine, about 50% sequence homology to ST; endogenous GCC agonist (PGTCEICAYAACTGC; ends and bridges not checked; cysteine pairing not given here; UniProt Q02747 101-115, looked up)”, the “activates guanylate cyclase at a level less than native ST” value [7] is listed as 10- to 100 fold.
For cGMP, the “level of apoptosis in irradiated intestinal tissue” value [8] is listed as “ameliorated”.
